Measured values published in US20110014196A1, “Drug Transfer into Living Cells” (priority 2007, published 2011).

How the values were obtained:
Assay type in all cases: biochemical
[1] = system: HaloTag protein available from Promega Corporation; experiment: Protein trimer formation with HaloTag protein by SDS-PAGE; conditions: 4 h incubation at rt, coomassie staining
Description: To a solution of N-tris[(2-carboxyethoxy)methyl]methyl nile red-oxyacetamide (86) (6 mg, 0.0083 mmol) and 18-chloro-3,6,9,12-tetraoxaoctadecan-1-amine (10 mg, 0.029 mmol, 3.5 eq) in DMF (1 mL) are successively added pyridine (5 μL, 0.058 mmol, 7 eq), HOBT (1 M in NMP, 8.3 μL, 0.0083 mmol, 1 eq) and EDC (6 mg, 0.029 mmol, 3.5 eq) at rt. The resulting mixture is stirred overnight. The solvent is evaporated under vacuum and compound (100) isolated by reversed phase HPLC on a C18 column using a linear gradient of water:acetonitrile (from 95:5 to 20:80 in 20 min, 0.08% TFA). The structural ability of compound (100) to trigger the formation of a protein trimer is confirmed by in vitro experiments using the fusion protein H2. 10 μL of a 70 μM solution of HaloTag protein available from Promega Corporation and 1.8 μL of a 230 μM solution of compound (100) is added to 3.2 μL of a solution of 50 mM Tris-HCl pH 7.5; 100 mM NaCl; 0.1% Tween20; 1 mM DTT. Following a 4 h incubation at rt, 15 μL of a solution of 100 mM Tris-HCl pH 6.8; 2% SDS; 35% glycerol; 10 mM EDTA; 20 mM DTT is added. Then the mixture is boiled for 5 min at 95° C. After cooling to rt, 25 μL of this solution is loaded on a 4-20% linear gradient SDS-PAGE gel. After electrophoresis, the proteins are coomassie stained in gel to visualize protein trimer.

[2] = system: fusion protein CLIP-FRB and the fusion protein SNAP-FKBP; experiment: Protein dimer formation with CLIP-FRB and SNAP-FKBP by SDS-PAGE; conditions: overnight incubation at 4° C., coomassie staining
Description: The structural ability of compound (104) and (105) to trigger the formation of a protein dimer is confirmed by in vitro experiments using the fusion protein CLIP-FRB and the fusion protein SNAP-FKBP. 1 μL of a 591 μM solution of FKBP protein fused to a variant of AGT available from Covalys as SNAP26, 10 μL of a 52.9 μM solution of FRB protein fused to a variant of AGT available from Covalys as CLIP and 1 μL of a 62.5 μM solution of mixture of compounds (104) and (105) is added to 3 μL of a solution of 50 mM Tris-HCl pH 7.5; 100 mM NaCl; 0.1% Tween20; 1 mM DTT. Following overnight incubation at 4° C., 15 μL of a solution of 100 mM Tris-HCl pH 6.8; 2% SDS; 35% glycerol; 10 mM EDTA; 20 mM DTT is added. Then the mixture is boiled for 5 min at 95° C. After cooling to rt, 25 μL of this solution is loaded on a 4-20% linear gradient SDS-PAGE gel. After electrophoresis, the proteins are coomassie stained in gel to visualize protein dimer.

fusion protein CLIP-FRB = experiment: Protein trimer formation with CLIP-FRB by SDS-PAGE; conditions: 4 h incubation at rt, coomassie staining
fusion protein CLIP-FRB, sequence (P16455 1-182 with the stated changes limits assumed): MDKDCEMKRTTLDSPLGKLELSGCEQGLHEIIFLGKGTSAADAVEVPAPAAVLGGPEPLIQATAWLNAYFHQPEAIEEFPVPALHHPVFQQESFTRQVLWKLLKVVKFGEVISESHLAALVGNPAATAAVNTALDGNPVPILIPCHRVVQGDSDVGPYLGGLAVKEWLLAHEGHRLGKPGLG
Description: To a solution of N-tris[(2-carboxyethoxy)methyl]methyl nile red-oxyacetamide (86) (10 mg, 0.014 mmol) and BC-PEG12-NH2 (98) (41 mg, 0.049 mmol, 3.5 eq) in DMF (1 mL) are successively added DIPEA (8.1 μL, 0.049 mmol, 3.5 eq), HOBT (1 M in NMP, 14 μL, 0.014 mmol, 1 eq) and EDC (10 mg, 0.049 mmol, 3.5 eq) at rt. The resulting mixture is stirred overnight. The solvent is evaporated under vacuum and compound (99) isolated by reversed phase HPLC on a C18 column using a linear gradient of water:acetonitrile (from 95:5 to 20:80 in 20 min, 0.08% TFA). The structural ability of compound (99) to trigger the formation of a protein trimer is confirmed by in vitro experiments using the fusion protein CLIP-FRB. 20 μL of a 52.9 μM solution of FRB protein fused to a variant of AGT available from Covalys under the trade name CLIP and 2 μL of a 100 μM solution of compound (99) is added to 3 μL of a solution of 50 mM Iris-HCl pH 7.5; 100 mM NaCl; 0.1% Tween20; 1 mM DTT. Following a 4 h incubation at rt, 15 μL of a solution of 100 mM Tris-HCl pH 6.8; 2% SDS; 35% glycerol; 10 mM EDTA; 20 mM DTT is added. Then the mixture is boiled for 5 min at 95° C. After cooling to rt, 25 μL of this solution is loaded on a 4-20% linear gradient SDS-PAGE gel. After electrophoresis, the proteins are coomassie stained in gel to visualize protein trimer.

[3] = system: FKBP protein fused to a variant of AGT available from Covalys as SNAP26 (SNAP-FKBP); experiment: Reactivity with FKBP-AGT fusion protein: protein trimer formation by SDS-PAGE and coomassie staining; conditions: 4 h incubation at rt; SDS-PAGE, coomassie staining
FKBP protein fused to a variant of AGT available from Covalys as SNAP26 (SNAP-FKBP), sequence (P16455 1-182 C62A/K125A/A127T/R128A/G131K/G132T/M134L/R135S/C150S/N157G/S159E limits assumed): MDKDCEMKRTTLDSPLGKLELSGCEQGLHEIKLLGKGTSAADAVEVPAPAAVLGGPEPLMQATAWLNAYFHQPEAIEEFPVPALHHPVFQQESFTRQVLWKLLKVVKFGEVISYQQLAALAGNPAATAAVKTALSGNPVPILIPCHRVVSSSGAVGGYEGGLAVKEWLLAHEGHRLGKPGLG
Description: 1 μL of a 591 μM solution of FKBP protein fused to a variant of AGT available from Covalys as SNAP26 and 1 μL of a 100 μM solution of compound (89), (90), (91), (92) or (96) are added to 8 μL of a solution of 50 mM Tris-HCl pH 7.5; 100 mM NaCl; 0.1% Tween20; 1 mM DTT. Following a 4 h incubation at rt, 15 μL of a solution of 100 mM Tris-HCl pH 6.8; 2% SDS; 35% glycerol; 10 mM EDTA; 20 mM DTT is added. The mixture is boiled for 5 min at 95° C. After cooling to rt, 25 μL of this solution is loaded on a 4-20% linear gradient SDS-PAGE gel. After electrophoresis, the proteins are coomassie stained in gel to visualize protein trimer.

Compound	structural ability to trigger the formation of a protein trimer [3]	other results
CCN(CC)c1ccc2nc3c4cc(OCC(=O)NC(COCCC(=O)NCCOCCOCCOCCOCCCCCCCl)(COCCC(=O)NCCOCCOCCOCCOCCCCCCCl)COCCC(=O)NCCOCCOCCOCCOCCCCCCCl)ccc4c(=O)cc-3oc2c1 [Compound 100, N-Tris-{[2-(halo-PEG4-NH-carbonyl)ethoxyl]methyl}methyl nile red-oxyacetamide]		structural ability to trigger the formation of a protein trimer [1]: confirmed
CN(C)c1ccc2c(-c3ccc(C(=O)NC(CCC(=O)NCc4ccc(COc5nc(N)nc6[nH]cnc56)cc4)C(=O)NCc4ccc(COc5nccc(N)n5)cc4)cc3C(=O)[O-])c3ccc(N(C)C)cc3[o+]c2c1 (centres unmarked) [Compound 104, N5-{4-[(2-amino-9H-purin-6-yloxy)methyl]benzyl}-N1-{4-[(4-aminopyrimidin-2-yloxy)methyl]benzyl}-2-tetramethylrhodamine-5-carboxamido-pentanediamide]		structural ability to trigger the formation of a protein dimer [2]: confirmed
N-Tris-{[2-(BC-PEG12-NH-carbonyl)ethoxyl]methyl}methyl nile red-oxyacetamide [Compound 99]		structural ability to trigger the formation of a protein trimer (fusion protein CLIP-FRB): confirmed
N-Tris-{[2-(BG-PEG12-NH-carbonyl)ethoxy]methyl}methyl 3-[2-(2-maleimidoethyl)disulfanyl]propanoylamide [Compound 96]	confirmed	
N-Tris-{[2-(BG-PEG12-NH-carbonyl)ethoxy]methyl}methyl 5-maleimido-pentanecarboxamide [Compound 92]	confirmed	
N-Tris-{[2-(BG-PEG12-NH-carbonyl)ethoxy]methyl}methyl 7-(diethylamino)-coumarin-3-carboxamide [Compound 89]	confirmed	
N-Tris-{[2-(BG-PEG12-NH-carbonyl)ethoxy]methyl}methyl ATTO-495-carboxamide [Compound 90]	confirmed	
N-Tris-{[2-(BG-PEG12-NH-carbonyl)ethoxy]methyl}methyl nile red-oxyacetamide [Compound 91]	confirmed	
